In patent US9895377B2, “Solid forms of tyrosine kinase inhibitors, process for the preparation and their pharmaceutical composition thereof” (LAURUS LABS LIMITED, priority 2012, dated 2018):

Experiment: delta pKa difference between tyrosine kinase inhibitor and anti-oxidative acids
Assay type: physicochemical
Settings: between the tyrosine kinase inhibitor and anti-oxidative acids; more than 3 = salt, less than 3 = co-crystal (FDA draft guidelines)

With COc1cc2ncnc(Nc3ccc(F)c(Cl)c3)c2cc1OCCCN1CCOCC1 [gefitinib, Gefitinib] the “delta pKa difference” value was “less than 3”.
For Cc1ccc(NC(=O)c2ccc(CN3CCN(C)CC3)cc2)cc1Nc1nccc(-c2cccnc2)n1 [imatinib, Imatinib], the “delta pKa difference” value was “more than 3”.
